Measurements taken from paper PMC10584170, “Machine learning-based phenotypic imaging to characterise the targetable biology of Plasmodium falciparum male gametocytes for the development of transmission-blocking antimalarials” (PLOS Pathogens, 2023).
Where two headings read alike, the source gives them in different places.

Legend:
[1] = system: P. falciparum female gametocytes; assay: P. falciparum Female Gametocyte Activation Assay (PfFGAA); type: cell-based, Plasmodium falciparum; conditions: Mean TOX HepG2 over FGAA IC50; GREEN = >10-fold; RED = <10-fold
Source text: Fig 1 The activity of TCAMS compound identified in the Pf DGFA screen. (A) 85 molecules were confirmed active in the Pf DGFA. 58 were previously identified in one or more transmission-blocking screens. […] No molecule was identified with >4.7-fold greater activity against female gametocytes. Abbreviations (IC50 = concentration giving 50% inhibition, PbODA = P. berghei Ookinete Development Assay, PfDGFA = P. falciparum Dual Gamete Formation Assay, PfFGAA = P. falciparum Female Gametocyte Activation Assay, PfGCT = P. falciparum Gametocyte Viability ATP Assay).

[2] = system: HepG2 cells; conditions: cited from earlier work
[3] = system: HepG2 cells; assay: HepG2 cytotoxicity counter-screen; conditions: for Mean TOX: mean of the HepG2 TOX50 values; for Tox50: cytotoxic activity against HepG2 cells
[4] = system: P. falciparum female gametocytes; assay: P. falciparum Dual Gamete Formation Assay (PfDGFA), female readout (Pfs25-positive female gametes); type: cell-based, Plasmodium falciparum NF54; conditions: for Selectivity ratio F: HepG2 Tox50 versus female IC50
Procedure, shortened: (§1)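 NF54 mature gametocytes (d14), cpd 24 h 37°C hypoxic gas; trigger: xanthurenic acid ookinete medium + Cy3 anti-Pfs25, 4°C 4 min → 28°C 4 min. Male: exflagellation centres, brightfield x6. Female: Pfs25+ gametes, fluorescence, +24 h 28°C dark.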

[5] = system: P. falciparum male gametocytes; assay: P. falciparum Dual Gamete Formation Assay (PfDGFA), male readout (exflagellation); type: cell-based, Plasmodium falciparum NF54; conditions: for Selectivity Ratio M: HepG2 Tox50 versus male IC50
Procedure, shortened: as §1

[6] = system: P. falciparum female gametocytes; parameters: method as in Miguel-Blanco et al 2017; conditions: ref Miguel-Blanco et al 2017; read-out: Pf female gametogenesis FGAA IC50; cited from earlier work
[7] = this study, read-out: Pf DGFA IC50 MALE
[8] = this study, read-out: Pf DGFA IC50 FEM
[9] = PfDGFA at 2µM, 24h preincubation with gametocytes, average of replicates
[10] = PfDGFA at 2µM, 24h preincubation with gametocytes, replicate R1
[11] = PfDGFA at 2µM, 24h preincubation with gametocytes, replicate R3
[12] = PfDGFA at 2µM, 24h preincubation with gametocytes, replicate R4
[13] = Plasmodium falciparum, 2µM, 24h preincubation with gametocytes, average of replicates, read-out: Average inhibition female (%)
[14] = Plasmodium falciparum, 2µM, 24h preincubation with gametocytes, replicate R1, read-out: % inhibition female (individual replicates) R1
[15] = Plasmodium falciparum, 2µM, 24h preincubation with gametocytes, replicate R2, read-out: % inhibition female (individual replicates) R2
[16] = Plasmodium falciparum, 2µM, 24h preincubation with gametocytes, replicate R3, read-out: % inhibition female (individual replicates) R3
[17] = Plasmodium falciparum, 2µM, 24h preincubation with gametocytes, replicate R4, read-out: % inhibition female (individual replicates) R4
[18] = Plasmodium falciparum, PfDGFA, 24 h incubation with gametocytes before induction, female gamete readout, read-out: Female IC50
[19] = Plasmodium falciparum, 2µM, 24h preincubation with gametocytes, average of replicates, read-out: Average inhibition male (%)
[20] = Plasmodium falciparum, 2µM, 24h preincubation with gametocytes, replicate R1, read-out: % inhibition male (individual replicates) R1
[21] = Plasmodium falciparum, 2µM, 24h preincubation with gametocytes, replicate R2, read-out: % inhibition male (individual replicates) R2
[22] = Plasmodium falciparum, 2µM, 24h preincubation with gametocytes, replicate R3, read-out: % inhibition male (individual replicates) R3
[23] = Plasmodium falciparum, 2µM, 24h preincubation with gametocytes, replicate R4, read-out: % inhibition male (individual replicates) R4
[24] = Plasmodium falciparum, PfDGFA, 24 h incubation with gametocytes before induction, exflagellation readout, read-out: Male IC50

Compound	IC50 [4, 8] [µM]	Cytotox ratio Pf FGAA [1]	FGAA TOX50 HepG2 [2] [µM]	Mean TOX [3] [µM]	Cytotox ratio Pf Female [4]	Cytotox ratio Pf Male [5]	IC50 [5, 7] [µM]	IC50 [6] [µM]	other results
Cc1ccc(C(C(=O)Nc2ccc(N3CCNCC3)c(Cl)c2)c2ccccc2)cc1 (centres unmarked) [TC10]		17.6	11.89	11.61	1.2	27.6	0.42	0.66	
CCc1cc2c(Sc3nnc(N)s3)ncnc2s1 [TC12]	0.74	63.9	32.3	46.65	63.0	47.6	0.98	0.73	
FC(F)(F)c1ccc2[nH]c(-c3ccc(-c4ccc(CNCCN5CCNCC5)cc4)cc3)nc2c1.O=C(O)C(F)(F)F [TC40]	6.08	10.7	16.43	15.09	2.5	10.3	1.46	1.41	
O=C1Nc2ccccc2C1=NNC(=S)N1CCOCC1 [TC50]	1.78	192.9		46.30	26.0	22.9	2.02	0.24	DGFA Tox50 HepG2 ([3]; HepG2 value reported with the DGFA screen): 46.3 µM
COc1cccc(C23NC(=Nc4nc5ccccc5[nH]4)NC2(c2cccc(OC)c2)NC(=Nc2nc4ccccc4[nH]2)N3)c1 (centres unmarked) [TC54]	1.3	406.2	40.74	36.56	28.1	19.8	1.85	0.09	
COc1ccc2nc(N=C3NC4(c5ccccc5)NC(=Nc5nc6ccc(OC)cc6[nH]5)NC4(c4ccccc4)N3)[nH]c2c1.O=C(O)C(F)(F)F (centres unmarked) [TC55]	5.84	401.0	62.72	48.12	8.2	41.5	1.16	0.12	
FC(F)(F)c1ccc2[nH]c(-c3ccc(-c4cccc(CNCCN5CCNCC5)c4)cc3)nc2c1.O=C(O)C(F)(F)F [TC77]	5.15	9.6	12.31	16.43	3.2	10.0	1.64	1.71	
Cl.OC(CNCCCCCCNCC(O)c1ccc(Cl)c(Cl)c1)c1ccc(Cl)c(Cl)c1 (centres unmarked) [TCMDC-141987]									Tox50 [3]: 6.33 µM; Selectivity ratio F [4]: 1.28; Average inhibition female (%) [4, 9]: 52.4%; % inhibition female (individual replicates) R1 [4, 10]: 44.0%; % inhibition female (individual replicates) R3 [4, 11]: 21.3%; % inhibition female (individual replicates) R4 [4, 12]: 69.1%; IC50 ([4]; PfDGFA, 24 h incubation with gametocytes before induction, female gamete readout, read-out: Female IC50): 4.93 µM; HitlevelF ([4]; number of replicates with >50% inhibition in the female readout, 2µM): 2; Selectivity Ratio M [5]: 3.57; Average inhibition male (%) [5, 9]: 88.7%; % inhibition male (individual replicates) R1 [5, 10]: 92.2%; % inhibition male (individual replicates) R3 [5, 11]: 63.5%; % inhibition male (individual replicates) R4 [5, 12]: 102.2%; IC50 ([5]; PfDGFA, 24 h incubation with gametocytes before induction, exflagellation readout, read-out: Male IC50): 1.77 µM; HitlevelM ([5]; number of replicates with >50% inhibition in the male readout, 2µM): 4
O=c1c(Br)ccccc1Br [TCMDC-142246]									Tox50 [3]: 6.95 µM; Selectivity ratio F [4]: 63.16; inhibition at 2 µM [4, 13]: 96.5%; inhibition at 2 µM [4, 14]: 93.6%; inhibition at 2 µM [4, 15]: 94.7%; inhibition at 2 µM [4, 16]: 103%; inhibition at 2 µM [4, 17]: 94.9%; IC50 [4, 18]: 0.11 µM; Selectivity Ratio M [5]: 47.29; inhibition at 2 µM [5, 19]: 98.7%; inhibition at 2 µM [5, 20]: 98.2%; inhibition at 2 µM [5, 21]: 102%; inhibition at 2 µM [5, 22]: 94.6%; inhibition at 2 µM [5, 23]: 99.6%; IC50 [5, 24]: 0.15 µM
Nc1cc(C=Cc2ccc([N+](=O)[O-])o2)nc2ccccc12 [TCMDC-142295]									Tox50 [3]: 2.6 µM; Selectivity ratio F [4]: 6.49; inhibition at 2 µM [4, 13]: 93.7%; inhibition at 2 µM [4, 14]: 96.4%; inhibition at 2 µM [4, 15]: 95.7%; inhibition at 2 µM [4, 16]: 93.8%; inhibition at 2 µM [4, 17]: 88.9%; IC50 [4, 18]: 0.4 µM; Selectivity Ratio M [5]: 16.74; inhibition at 2 µM [5, 19]: 98.9%; inhibition at 2 µM [5, 20]: 98.2%; inhibition at 2 µM [5, 21]: 98.8%; inhibition at 2 µM [5, 22]: 98.4%; inhibition at 2 µM [5, 23]: 100%; IC50 [5, 24]: 0.16 µM
Nc1cc(C=Cc2ccc([N+](=O)[O-])s2)nc2ccccc12 [TCMDC-142296]									Tox50 [3]: 1.76 µM; Selectivity ratio F [4]: 1.71; inhibition at 2 µM [4, 13]: 80.5%; inhibition at 2 µM [4, 14]: 71.6%; inhibition at 2 µM [4, 15]: 88.4%; inhibition at 2 µM [4, 16]: 72.1%; inhibition at 2 µM [4, 17]: 89.8%; IC50 [4, 18]: 1.03 µM; Selectivity Ratio M [5]: 5.37; inhibition at 2 µM [5, 19]: 100%; inhibition at 2 µM [5, 20]: 99.9%; inhibition at 2 µM [5, 21]: 101%; inhibition at 2 µM [5, 22]: 97.4%; inhibition at 2 µM [5, 23]: 102%; IC50 [5, 24]: 0.33 µM

The next lines start with results.

IC50 [4, 8] [µM]	Compound	Cytotox ratio Pf FGAA [1]	FGAA TOX50 HepG2 [2] [µM]	Mean TOX [3] [µM]	Cytotox ratio Pf Female [4]	Cytotox ratio Pf Male [5]	IC50 [5, 7] [µM]	IC50 [6] [µM]	other results
1.02	c1ccc(-c2nc(Nc3nc4ccccc4[nH]3)[nH]c2-c2ccccc2)cc1 [TC56]	23.4	10.98	13.60	13.3	14.3	0.95	0.58	
0.27	CC(C)(CN)c1nc(-c2ccc(Cl)c(O)c2)c(-c2ccncc2)[nH]1.Cl [TC61]		2.16	7.15			0.91	0.94	ODA TOX50 HepG2 [2]: 1.66 µM
7.16	CCN(CC)CCN(Cc1ccc(-c2ccc(C(F)(F)F)cc2)cc1)C(=O)Cn1cc(Cc2cnn(C)c2)c(=O)nc1/C=C/c1ccc(F)cc1.O=C(O)C(O)C(O)C(=O)O [TC64]	12.5	13.81	15.09	2.1	17.8	0.85	1.21	
